Source: ChEMBL document CHEMBL1201862, “PubChem BioAssay data set” (2004)
Active and inactive are the calls of the source.

Columns and labels:
INS1 = assay: INS-1E survival protection against cytokine death – cell-based, luminescence, retest, dose response (AID 449756); type: functional; conditions: Rattus norvegicus;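 note: cell death triggered by IL-1 beta plus TNF-alpha plus IFN-gamma mixture; protective hits raise ATP signal compared with cytokine alone wells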
[1] = growth inhibition of MALME3 cells – cell-based, CellTiter-Glo luminescence, dry powder, set 5, orthogonal assay for MITF inhibitor project, dose response (AID 651584); type: functional; conditions: MALME-3
[2] = MITF Orthogonal Assay: SK-MEL-5 CTG Assay Measured in Cell-Based System Using Plate Reader - 2084-02_Inhibitor_Dose_DryPowder_Activity_Set5.; type: functional
Aspartyl aminopeptidase = Aspartyl aminopeptidase (Plasmodium falciparum 3D7, UniProt Q8I2J3)
Protein Tat = Protein Tat (Human immunodeficiency virus type 1 group M subtype B (isolate HXB2)(HIV-1), UniProt P04608); type: functional;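 note: tat binding to TAR RNA read out by fluorescence polarization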
[3] = Trypanosoma cruzi growth suppression in host cells – NIH3T3 host cells, beta-gal luminescence, confirmation (AID 2044); type: functional, cell-based;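 note: intracellular parasites grown in NIH/3T3 mouse fibroblasts as host cells; luminescent beta-galactosidase reporter signal from transgenic T. cruzi replicating inside host cells; inhibitors lower the luminescence signal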
[4] = viability loss of HPDE-C7K cells – cell-based, fluorescence, HTS, primary screen (AID 431); type: functional; conditions: Homo sapiens
[5] = target: T1, Orexin/Hypocretin receptor type 1 (Homo sapiens, UniProt O43613); assay: Homogeneous Time Resolved Fluorescence (HTRF)-based cell-based high throughput dose response assay for antagonists of the orexin 1 receptor (OX1R; HCRTR1). [Related pubchem assays (depositor defined):AID434989, AID435008, AID463079, AID485270, AID492963, AID492964, AID492965, AID493232, AID504717, AID504718]; type: functional
T1 sequence (O43613 whole entry): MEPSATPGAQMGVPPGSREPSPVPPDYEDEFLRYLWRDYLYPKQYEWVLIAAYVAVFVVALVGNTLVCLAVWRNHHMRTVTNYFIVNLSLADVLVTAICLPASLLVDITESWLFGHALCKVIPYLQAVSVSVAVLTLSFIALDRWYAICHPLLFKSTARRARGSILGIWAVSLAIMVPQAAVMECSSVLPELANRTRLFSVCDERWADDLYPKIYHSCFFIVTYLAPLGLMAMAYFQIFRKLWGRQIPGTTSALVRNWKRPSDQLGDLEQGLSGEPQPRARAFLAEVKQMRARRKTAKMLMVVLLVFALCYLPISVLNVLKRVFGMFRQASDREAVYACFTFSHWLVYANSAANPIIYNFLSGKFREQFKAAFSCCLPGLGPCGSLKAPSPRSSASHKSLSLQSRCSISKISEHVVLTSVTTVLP

[6] = target: T1, Orexin/Hypocretin receptor type 1; assay: Fluorescence-based cell-based high throughput dose response assay for antagonists of the orexin 1 receptor (OX1R; HCRTR1). [Related pubchem assays (depositor defined):AID434989, AID435008, AID463079, AID485270, AID492963, AID492964, AID492965, AID493232, AID504717, AID504718]; type: functional
[7] = target: Vascular endothelial growth factor receptor 1 (Homo sapiens, UniProt P17948); type: functional;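 note: measured within a kinome-wide profiling panel, FLT1 as the panel member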
[8] = target: Macrophage colony-stimulating factor 1 receptor (Homo sapiens, UniProt P07333); type: functional;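 note: value comes from the Navigating the Kinome screening panel, CSF1R member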
[9] = target: Protein kinase C iota type (Homo sapiens, UniProt P41743); type: functional;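 note: measured within a kinome-wide kinase panel, PRKCI as panel member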
[10] = target: Macrophage-stimulating protein receptor (Homo sapiens, UniProt Q04912); assay: Navigating the Kinome. Panel member name: MST1R; type: functional
[11] = target: Serine/threonine-protein kinase Chk2 (Homo sapiens, UniProt O96017); type: functional;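 note: CHEK2 entry within a kinome-wide screening panel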
[12] = target: BDNF/NT-3 growth factors receptor (Homo sapiens, UniProt Q16620); type: functional;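 note: NTRK2 measured as one member of a broad kinome-wide kinase profiling panel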
Focal adhesion kinase 1 = Focal adhesion kinase 1 (Homo sapiens, UniProt Q05397); type: functional;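 note: measured as one member of a kinome panel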
[13] = target: Mitogen-activated protein kinase 12 (Homo sapiens, UniProt P53778); type: functional;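 note: measured as one member of a kinome-wide kinase profiling panel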
[14] = target: Glycogen synthase kinase-3 beta (Homo sapiens, UniProt P49841); type: functional;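 note: value comes from a broad kinome profiling panel, with GSK3B as the panel member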
[15] = target: Calcium/calmodulin-dependent protein kinase type II subunit delta (Homo sapiens, UniProt Q13557); type: functional
[16] = target: Protein kinase C zeta type (Homo sapiens, UniProt Q05513); type: functional;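 note: measured as one member of a broad kinase profiling panel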
[17] = target: Cyclin-dependent kinase 8 (Homo sapiens, UniProt P49336); assay: Navigating the Kinome. Panel member name: CDK8; type: functional
[18] = target: Phosphorylase b kinase gamma catalytic chain, liver/testis isoform (Homo sapiens, UniProt P15735); type: functional;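 note: PHKG2 measured as one member of a kinome-wide kinase panel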
Activin receptor type-1 = Activin receptor type-1 (Homo sapiens, UniProt Q04771); assay: Navigating the Kinome. Panel member name: ACVR1; type: functional
[19] = target: Serine/threonine-protein kinase BRSK1 (Homo sapiens, UniProt Q8TDC3); type: functional;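 note: measured within a kinome-wide kinase panel, with the target listed as KIAA1811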
[20] = target: Cyclin-dependent kinase 9 (Homo sapiens, UniProt P50750); type: functional;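 note: value from the CDK9 entry of a kinome-spanning kinase panel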
[21] = target: Tyrosine-protein kinase receptor TYRO3 (Homo sapiens, UniProt Q06418); type: functional;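 note: TYRO3 value obtained as one member of a kinome-wide profiling panel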
[22] = target: Serine/threonine-protein kinase PAK 4 (Homo sapiens, UniProt O96013); type: functional;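 note: value obtained within a kinome profiling panel in which PAK4 was one of the panel members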
[23] = target: Vascular endothelial growth factor receptor 3 (Homo sapiens, UniProt P35916); type: functional;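 note: value from a kinome-wide profiling panel, with FLT4 as the panel member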
[24] = target: ALK tyrosine kinase receptor (Homo sapiens, UniProt Q9UM73); type: functional;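 note: ALK tested as one member of a kinase panel screen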
[25] = target: Dual specificity tyrosine-phosphorylation-regulated kinase 1A (Homo sapiens, UniProt Q13627); type: functional;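 note: measured against DYRK1A as one member of a broad kinome profiling panel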
[26] = target: Rho-associated protein kinase 1 (Homo sapiens, UniProt Q13464); type: functional;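 note: measured within a broad kinome-wide panel profiling many kinases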
[27] = target: Protein kinase C delta type (Homo sapiens, UniProt Q05655); type: functional
[28] = target: Dual specificity protein kinase CLK2 (Homo sapiens, UniProt P49760); type: functional
[29] = target: Non-receptor tyrosine-protein kinase TYK2 (Homo sapiens, UniProt P29597); type: functional
Ephrin type-A receptor 2 = Ephrin type-A receptor 2 (Homo sapiens, UniProt P29317); type: functional;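 note: EPHA2 tested as one member of a kinome-wide kinase panel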
[30] = target: Tyrosine-protein kinase JAK3 (Homo sapiens, UniProt P52333); type: functional
[31] = target: Serine/threonine-protein kinase pim-2 (Homo sapiens, UniProt Q9P1W9); type: functional;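 note: value comes from a broad kinase panel profiling study in which PIM2 was one of the panel members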
[32] = target: Dual specificity tyrosine-phosphorylation-regulated kinase 1B (Homo sapiens, UniProt Q9Y463); assay: Navigating the Kinome. Panel member name: DYRK1B; type: functional

Sequence of Vascular endothelial growth factor receptor 1 (P17948 whole entry): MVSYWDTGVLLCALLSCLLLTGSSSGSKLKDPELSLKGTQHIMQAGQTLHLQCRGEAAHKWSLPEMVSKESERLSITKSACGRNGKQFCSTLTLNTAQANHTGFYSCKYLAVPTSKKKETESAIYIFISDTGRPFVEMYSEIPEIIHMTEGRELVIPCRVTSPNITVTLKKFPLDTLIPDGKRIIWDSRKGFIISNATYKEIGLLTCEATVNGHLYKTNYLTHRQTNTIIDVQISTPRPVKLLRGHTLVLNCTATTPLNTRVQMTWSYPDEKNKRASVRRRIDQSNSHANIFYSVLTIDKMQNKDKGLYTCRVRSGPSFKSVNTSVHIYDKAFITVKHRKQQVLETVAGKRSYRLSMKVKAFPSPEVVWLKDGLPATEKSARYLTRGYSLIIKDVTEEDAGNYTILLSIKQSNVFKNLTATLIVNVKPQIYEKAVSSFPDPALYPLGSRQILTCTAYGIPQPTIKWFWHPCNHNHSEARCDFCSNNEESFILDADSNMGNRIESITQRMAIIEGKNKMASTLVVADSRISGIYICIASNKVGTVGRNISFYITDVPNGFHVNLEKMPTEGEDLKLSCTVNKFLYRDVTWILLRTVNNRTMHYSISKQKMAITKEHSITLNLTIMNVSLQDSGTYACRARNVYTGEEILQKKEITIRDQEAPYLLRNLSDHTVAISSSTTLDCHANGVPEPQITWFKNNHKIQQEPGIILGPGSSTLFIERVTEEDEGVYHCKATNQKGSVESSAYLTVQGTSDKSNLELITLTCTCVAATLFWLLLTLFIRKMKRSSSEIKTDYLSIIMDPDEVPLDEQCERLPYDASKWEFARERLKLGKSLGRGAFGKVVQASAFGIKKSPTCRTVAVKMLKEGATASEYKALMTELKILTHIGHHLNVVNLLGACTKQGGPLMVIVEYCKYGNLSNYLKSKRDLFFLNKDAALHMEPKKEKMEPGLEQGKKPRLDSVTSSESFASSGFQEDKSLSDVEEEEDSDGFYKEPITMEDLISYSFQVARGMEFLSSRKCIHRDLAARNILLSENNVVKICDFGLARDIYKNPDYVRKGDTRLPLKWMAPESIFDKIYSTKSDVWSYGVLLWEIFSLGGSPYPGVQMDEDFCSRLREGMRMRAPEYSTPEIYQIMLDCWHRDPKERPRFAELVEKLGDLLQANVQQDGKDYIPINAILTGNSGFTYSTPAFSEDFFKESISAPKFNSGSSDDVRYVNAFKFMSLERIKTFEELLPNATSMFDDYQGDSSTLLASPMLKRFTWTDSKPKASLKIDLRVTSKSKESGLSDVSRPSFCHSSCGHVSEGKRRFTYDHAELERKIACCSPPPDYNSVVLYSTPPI
Sequence of Ephrin type-A receptor 2 (P29317 whole entry): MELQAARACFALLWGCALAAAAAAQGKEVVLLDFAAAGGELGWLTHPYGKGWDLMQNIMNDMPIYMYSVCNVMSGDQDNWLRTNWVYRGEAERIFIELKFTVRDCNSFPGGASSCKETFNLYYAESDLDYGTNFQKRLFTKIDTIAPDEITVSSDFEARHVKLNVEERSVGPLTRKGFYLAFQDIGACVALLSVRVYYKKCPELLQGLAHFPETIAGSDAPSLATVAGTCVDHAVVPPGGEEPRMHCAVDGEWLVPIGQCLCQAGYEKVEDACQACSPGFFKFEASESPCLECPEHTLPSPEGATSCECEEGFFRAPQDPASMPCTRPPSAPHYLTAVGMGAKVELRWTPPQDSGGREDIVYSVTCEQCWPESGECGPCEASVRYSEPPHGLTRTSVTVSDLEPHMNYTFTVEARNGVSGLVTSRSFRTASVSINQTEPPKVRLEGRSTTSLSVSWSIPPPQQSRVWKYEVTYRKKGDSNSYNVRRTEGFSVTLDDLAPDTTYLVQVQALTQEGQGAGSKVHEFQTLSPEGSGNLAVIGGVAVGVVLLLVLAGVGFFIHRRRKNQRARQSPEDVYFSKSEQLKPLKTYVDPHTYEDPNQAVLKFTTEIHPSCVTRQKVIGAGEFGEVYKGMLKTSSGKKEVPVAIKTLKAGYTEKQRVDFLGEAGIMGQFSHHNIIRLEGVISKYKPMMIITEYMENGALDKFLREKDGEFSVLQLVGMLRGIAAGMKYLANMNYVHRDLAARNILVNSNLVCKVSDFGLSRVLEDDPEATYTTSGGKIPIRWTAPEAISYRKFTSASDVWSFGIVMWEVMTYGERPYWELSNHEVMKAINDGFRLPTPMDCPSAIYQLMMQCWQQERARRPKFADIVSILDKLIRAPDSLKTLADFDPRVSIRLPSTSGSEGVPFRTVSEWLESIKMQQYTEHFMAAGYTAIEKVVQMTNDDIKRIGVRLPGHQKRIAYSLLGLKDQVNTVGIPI
Sequence of Protein kinase C iota type (P41743 whole entry): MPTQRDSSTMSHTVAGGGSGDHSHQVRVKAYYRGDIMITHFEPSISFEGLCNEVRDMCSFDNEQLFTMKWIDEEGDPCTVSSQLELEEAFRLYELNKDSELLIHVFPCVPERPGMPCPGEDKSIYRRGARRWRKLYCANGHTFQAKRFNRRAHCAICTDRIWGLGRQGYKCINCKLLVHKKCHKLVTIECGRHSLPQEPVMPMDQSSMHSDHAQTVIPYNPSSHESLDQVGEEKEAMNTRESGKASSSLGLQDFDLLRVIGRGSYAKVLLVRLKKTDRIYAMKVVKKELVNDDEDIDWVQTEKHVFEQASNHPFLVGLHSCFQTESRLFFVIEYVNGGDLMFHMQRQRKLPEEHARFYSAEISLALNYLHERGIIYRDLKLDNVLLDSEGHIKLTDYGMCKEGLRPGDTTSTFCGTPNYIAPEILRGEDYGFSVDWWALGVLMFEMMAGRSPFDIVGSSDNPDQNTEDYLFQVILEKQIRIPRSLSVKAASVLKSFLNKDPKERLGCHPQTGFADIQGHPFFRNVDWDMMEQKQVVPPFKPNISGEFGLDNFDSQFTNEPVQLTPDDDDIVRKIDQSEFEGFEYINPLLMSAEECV
Sequence of Protein kinase C delta type (Q05655 whole entry): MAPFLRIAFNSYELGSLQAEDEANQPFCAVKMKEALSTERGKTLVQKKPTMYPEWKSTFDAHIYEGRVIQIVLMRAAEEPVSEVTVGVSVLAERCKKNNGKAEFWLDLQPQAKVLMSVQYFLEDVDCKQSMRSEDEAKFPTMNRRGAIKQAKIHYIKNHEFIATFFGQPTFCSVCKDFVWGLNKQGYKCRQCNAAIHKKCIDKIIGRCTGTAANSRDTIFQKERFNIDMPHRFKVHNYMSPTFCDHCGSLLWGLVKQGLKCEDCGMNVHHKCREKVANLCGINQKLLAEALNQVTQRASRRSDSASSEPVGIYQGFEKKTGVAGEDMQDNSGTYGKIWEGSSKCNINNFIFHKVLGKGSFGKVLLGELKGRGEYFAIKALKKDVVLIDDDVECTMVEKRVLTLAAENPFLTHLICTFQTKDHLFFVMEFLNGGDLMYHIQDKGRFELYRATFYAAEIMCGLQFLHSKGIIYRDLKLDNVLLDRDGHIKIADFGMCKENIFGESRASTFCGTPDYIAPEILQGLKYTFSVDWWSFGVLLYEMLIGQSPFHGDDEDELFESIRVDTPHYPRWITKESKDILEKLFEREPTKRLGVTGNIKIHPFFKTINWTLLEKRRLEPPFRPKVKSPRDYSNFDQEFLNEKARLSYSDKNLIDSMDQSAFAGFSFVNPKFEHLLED
Sequence of BDNF/NT-3 growth factors receptor (Q16620 whole entry): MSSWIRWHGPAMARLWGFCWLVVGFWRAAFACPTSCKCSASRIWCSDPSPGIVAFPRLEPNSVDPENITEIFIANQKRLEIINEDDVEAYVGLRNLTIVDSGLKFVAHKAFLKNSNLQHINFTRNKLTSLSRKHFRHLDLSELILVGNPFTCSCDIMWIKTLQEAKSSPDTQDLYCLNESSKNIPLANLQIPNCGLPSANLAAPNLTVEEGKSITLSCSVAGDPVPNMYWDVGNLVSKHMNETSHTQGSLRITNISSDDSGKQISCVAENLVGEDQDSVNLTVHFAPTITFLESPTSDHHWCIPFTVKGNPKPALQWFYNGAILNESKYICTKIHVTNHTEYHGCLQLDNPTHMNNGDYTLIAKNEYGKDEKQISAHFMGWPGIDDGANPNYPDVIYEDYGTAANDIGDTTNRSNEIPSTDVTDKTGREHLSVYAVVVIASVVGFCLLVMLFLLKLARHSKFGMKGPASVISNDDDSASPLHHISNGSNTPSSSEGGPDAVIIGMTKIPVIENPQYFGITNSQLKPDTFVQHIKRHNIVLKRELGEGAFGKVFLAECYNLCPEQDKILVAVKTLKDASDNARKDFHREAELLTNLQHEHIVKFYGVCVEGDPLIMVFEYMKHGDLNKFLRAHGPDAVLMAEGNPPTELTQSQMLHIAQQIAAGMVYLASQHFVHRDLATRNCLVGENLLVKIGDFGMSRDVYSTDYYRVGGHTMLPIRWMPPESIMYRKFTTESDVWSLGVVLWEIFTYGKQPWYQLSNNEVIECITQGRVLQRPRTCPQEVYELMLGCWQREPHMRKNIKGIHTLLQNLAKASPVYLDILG
Sequence of Protein kinase C zeta type (Q05513 whole entry): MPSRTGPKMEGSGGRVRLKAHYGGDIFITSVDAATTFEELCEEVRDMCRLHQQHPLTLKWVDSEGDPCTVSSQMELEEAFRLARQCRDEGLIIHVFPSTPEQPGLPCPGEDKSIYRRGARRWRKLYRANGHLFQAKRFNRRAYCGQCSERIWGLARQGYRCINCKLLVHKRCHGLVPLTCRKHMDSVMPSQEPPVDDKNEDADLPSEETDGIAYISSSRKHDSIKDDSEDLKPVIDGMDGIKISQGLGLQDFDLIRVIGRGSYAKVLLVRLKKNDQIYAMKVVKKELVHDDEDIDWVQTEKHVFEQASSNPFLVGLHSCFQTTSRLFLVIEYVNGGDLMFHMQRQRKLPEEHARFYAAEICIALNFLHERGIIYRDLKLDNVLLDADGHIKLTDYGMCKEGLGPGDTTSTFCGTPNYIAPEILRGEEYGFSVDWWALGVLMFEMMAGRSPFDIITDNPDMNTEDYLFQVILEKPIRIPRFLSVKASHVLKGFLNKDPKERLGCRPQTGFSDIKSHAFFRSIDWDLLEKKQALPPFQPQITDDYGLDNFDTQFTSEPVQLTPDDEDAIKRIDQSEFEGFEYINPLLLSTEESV

Compound: C=CCNC1=C(Cl)C(=O)c2ccccc2C1=O
- AC50 (INS1): 7640 nM (active)
- AC50 [1]: 9990 nM (active)
- AC50 [2]: 1700 nM (active)

Compound: CS(=O)(=O)c1ccc2c(c1)SC1=NC(=O)/C(=C/c3ccc(O)c(O)c3)C(=N)N12
- IC50 (Aspartyl aminopeptidase): 2160 nM (active)

Compound: CCOC(=O)C(C(=O)OCC)c1cc(Br)c2noc3c2c1C(=O)c1ccccc1-3
- IC50 (Protein Tat): 6440 nM (inconclusive)
- EC50 [3]: 510 nM (active)
- EC50 [4]: 3060 nM (active)

Compound: CN(C)c1ccc(-c2nnc(-c3cccs3)o2)cc1
- IC50 [5]: 3580 nM (active)
- IC50 [6]: > 49700 nM (inactive)

Compound: COc1ccc(C(=O)Nc2n[nH]c3ccc(-c4cn(Cc5ccccc5)nn4)cc23)cc1OC
- Ki [7]: 200 nM (active)
- Ki [8]: > 1580 nM (inactive)
- Ki [9]: 3980 nM (active)
- Ki [10]: 794 nM (active)
- Ki [11]: 50.1 nM (active)
- Ki [12]: > 5010 nM (inactive)
- Ki (Focal adhesion kinase 1): > 6310 nM (inactive)
- Ki [13]: 631 nM (active)
- Ki [14]: > 100 nM (inactive)
- Ki [15]: 794 nM (active)
- Ki [16]: > 7940 nM (inactive)
- Ki [17]: > 3980 nM (inactive)
- Ki [18]: 316 nM (active)
- Ki (Activin receptor type-1): 1000 nM (active)
- Ki [19]: 1260 nM (active)
- Ki [20]: 501 nM (active)
- Ki [21]: > 2000 nM (inactive)
- Ki [22]: 501 nM (active)
- Ki [23]: 200 nM (active)
- Ki [24]: > 6310 nM (inactive)
- Ki [25]: 100 nM (active)
- Ki [26]: 1260 nM (active)
- Ki [27]: 3160 nM (active)
- Ki [28]: 63.1 nM (active)
- Ki [29]: 20 nM (active)
- Ki (Ephrin type-A receptor 2): > 3160 nM (inactive)
- Ki [30]: 1000 nM (active)
- Ki [31]: > 2510 nM (inactive)
- Ki [32]: 15.8 nM (active)
